In paper PMC10385865, “Synthesis and Anticancer Activity of Novel Dual Inhibitors of Human Protein Kinases CK2 and PIM-1” (Pharmaceutics, 2023):
Like-named read-outs stand apart in the source and are kept apart here.

How the values were obtained:
[1] = system: K-562 (chronic myelogenous leukemia); assay: MTT-based viability assay, K-562; type: cell-based, human; conditions: for IC50: Homo sapiens, read-out: IC50 K-562
Protocol: (§1) After incubation with the tested compounds, an MTT test was performed as described previously. Optical densities were measured at 570 nm using a BioTek microplate reader (BioTek Instruments, Inc., Winooski, VT, USA). All measurements were carried out in a minimum of three biological replicates.
(§2) . The IC50 values describing the half-maximal effective concentration of each tested compound were calculated and are summarized in Table 2. […].

MCF-7 (breast carcinoma) = assay: MTT-based viability assay, MCF-7; type: cell-based, human; conditions: for IC50: Homo sapiens, read-out: IC50 MCF-7
Protocol: as §1, §2

K-562 cells [2] = assay: Acridine orange staining, microscopy and fluorescence intensity assay (autophagy); type: cell-based, human; conditions: for induction of autophagy (in words): BCR-ABL-positive CML cell line K-562, 48 h; for red fluorescence (red-stained lysosomes), AO, % of the control: K-562, 48 h, 4 at both concentrations, rac-6 at 15 µM, not statistically significant
Protocol: K-562 cells were seeded in 6-well plates at 2.5 × 10^5/mL and subjected to the tested compounds. After 48 h of incubation, cells were centrifugated at 200× g at 4 °C for 5 min, subsequently suspended in PBS containing 2 µg/mL AO and Hoechst 33342, and incubated at 37 °C for 20 min in the dark. Subsequently, cells were centrifugated at 200× g at 4 °C for 5 min. Then, 5 µL of the sample was mounted on a glass slide and covered with a coverslip and examined under a Nikon ECLIPSE Y-TV55 fluorescent microscope.
K-562 cells were seeded in 6-well plates at 2.5 × 10^5/mL and subjected to the tested compounds. After 48 h of incubation, cells were centrifugated at 200× g at 4 °C for 5 min, subsequently suspended in PBS containing 2 µg/mL AO and Hoechst 33342, and incubated at 37 °C for 20 min in the dark. Subsequently, cells were centrifugated at 200× g at 4 °C for 5 min, and 150 µL of the sample was measured on dark plates (Sarstedt). The fluorescence intensity of AO at Ex. 502 nm/Em. 520–524 nm (aggregated or DNA complexed form), Ex. 457 nm/Em. 630–644 nm (aggregated or RNA complexed form), Ex. 540 nm/Em. 640–660 nm (red-stained lysosomes), and Ex. 488 nm/Em. 540–550 nm (yellowish stained lysosomes) and that of Hoechst (nuclei, Ex. 361 nm/Em. 497 nm) in K-562 cells was measured with a Synergy H4 Hybrid Multi-Mode Microplate Reader (BioTek Instruments, Inc., Winooski, VT, USA). The data were normalized to the intensity of Hoechst (nuclei, Ex. 361 nm/Em. 497 nm) in comparison to control cells serving as the reference point, showing 100%.
In order to conclude the mechanism of death of K-562 cells treated with the tested active agents, microscopic observations and a fluorescence intensity assay were performed after staining the cells with an acridine orange (AO). The employed dye is a cell-permeable fluorophore that can be protonated and trapped in acidic vesicular organelles (AVOs). Its metachromatic shift to red fluorescence is concentration-dependent, and therefore, acridine orange fluoresces red in AVOs, such as autolysosomes, can be detected quantitatively. In addition, OA has the ability to intercalate between the nitrogenous bases of the nucleic acids present in cells and their labeling. DNA or RNA is digested during the autophagy process, and the resulting damage makes it easier to bind with OA molecules.
After 48 h of treatment with 4 and rac-6, K-562 cells, were subjected to staining with Hoechst (nuclei staining) and AO, followed by fluorescent microscopy and a fluorescence intensity measurement. […] Since the obtained microscopic data were inconclusive, we additionally measured fluorescence intensity of AO at four different wavelengths, i.e., Ex. 502 nm/Em. 520–524 nm (aggregated or DNA complexed form), Ex. 457 nm/Em. 630–644 nm (aggregated or RNA complexed form), Ex. 540 nm/Em. 640–660 nm (red-stained lysosomes), and Ex. 488 nm/Em. 540–550 nm (yellowish stained lysosomes) (Figure 6b).

CCRF-CEM cells [3] = assay: Cell cycle progression by flow cytometry (PI), CCRF-CEM; type: cell-based, human; conditions: 48 h
Protocol: (§3) MCF-7, CCRF-CEM, and K-562 cells were cultured in 6-well plates and treated with the tested compounds for 48 h. After exposure to the compounds, the cells were collected and washed with cold PBS and fixed at −20 °C in 70% ethanol for at least 24 h. Subsequently, cells were washed in PBS and stained with 50 μg/mL PI (propidium iodide) and 100 μg/mL RNase solution in PBS supplemented with 0.1% v/v Triton X-100 for 30 min in the dark at RT. Cellular DNA content was determined by flow cytometry employing a BD FACSCanto II flow cytometer (BD Biosciences, San Jose, CA, USA). The obtained DNA histograms were analyzed using MacCycle software (Phoenix Flow Systems, San Diego, CA, USA) for evaluation of the distribution of the cells in different phases of the cell cycle.
(§4) Since CK2 controls cell cycle progression and, consequently, its inhibition can affect the distribution of cells in the individual phases of the cell cycle, we tested the cell cycle progression in CCRF-CEM, K-562, and MCF-7 cells after treatment with 4 and rac-6. Representative plots DNA histograms with the calculations of cell percentages in each phase of the cell cycle are depicted in Figure 7. […] Accumulation of cells in sub-G1 indicates DNA degradation, as often seen in apoptotic cells, confirming the results obtained with annexin V and PI staining.

K-562 cells [4] = assay: Cell cycle progression by flow cytometry (PI), K-562; type: cell-based, human; conditions: for K-562 cells in S phase (maximum): K-562, 15 µM, 48 h; for cell cycle arrest (phase, in words): K-562, 48 h
Protocol: as §3, §4

CCRF-CEM cells [5] = assay: Annexin V/propidium iodide apoptosis, flow cytometry, CCRF-CEM; conditions: 48 h; for Early apoptosis / Late apoptosis / Necrosis: mean±SD; for viability at 5 µM / viability at 10 µM: Homo sapiens, read-out: Viable
Protocol: MCF-7 cells were seeded in 6-well plates at 1.2 × 10^5 cells/well, whereas CCRF-CEM and K-562 cells were seeded in 24-well plates at a density of 2 × 10^5/mL. Cells were treated with the tested compounds used in 5 µM and 10 µM concentrations. Then, the plates were incubated for 48 h. After exposure to the examined compounds, the cells were collected and centrifugated at 200× g at 4 °C for 5 min, washed twice in cold phosphate-buffered saline (PBS), and subsequently suspended in binding buffer at 1 × 10^6 cells/mL. Subsequently, 100-μL aliquots of the cell suspension were labeled according to the instructions of the respective manufacturer’s kit. Briefly, annexin V-fluorescein isothiocyanate and propidium iodide (BD Biosciences, Pharmingen, San Diego, CA, USA) were added to the cell suspension, and the mixture was vortexed, then incubated for 15 min at RT in the dark. A cold binding buffer (400 μL) was then added, and the cells were vortexed again and kept on ice. Flow cytometric measurements were performed within 1 h after labeling. Viable, necrotic, early, and late apoptotic cells were detected by flow cytometry using a BD FACSCanto II flow cytometer and analyzed using BD FACSDiva operating software (BD Biosciences, San Jose, CA, USA).

| Structure (SMILES) | induction of autophagy (in words) (K-562 cells [2]) | red fluorescence (red-stained lysosomes), AO, % of the control (K-562 cells [2]) | cell cycle arrest (phase, in words) (CCRF-CEM cells [3]) | K-562 cells in S phase (maximum) (K-562 cells [4]) [%] | cell cycle arrest (phase, in words) (K-562 cells [4]) | Early apoptosis (CCRF-CEM cells [5]; 5 µM) [%] | Late apoptosis (CCRF-CEM cells [5]; 5 µM) [%] | Necrosis (CCRF-CEM cells [5]; 5 µM) [%] | Early apoptosis (CCRF-CEM cells [5]; 10 µM) [%] | Late apoptosis (CCRF-CEM cells [5]; 10 µM) [%] | Necrosis (CCRF-CEM cells [5]; 10 µM) [%] | viability at 5 µM (CCRF-CEM cells [5]) [%] | viability at 10 µM (CCRF-CEM cells [5]) [%] | further results |
| --- | --- | --- | --- | --- | --- | --- | --- | --- | --- | --- | --- | --- | --- | --- |
| OC(CNc1nc2c(Br)c(Br)c(Br)c(Br)c2[nH]1)C(F)(F)F (racemic) [rac-6, 1,1,1-Trifluoro-3-[(4,5,6,7-tetrabromo-1H-benzimidazol-2-yl)amino]propan-2-ol] | able to induce autophagy | up to 148 % of the control | G1-phase arrest | 56.1 | S-phase arrest | 2.75±0.07 | 18.85±3.61 | 2.45±0.07 | 2.30±0.42 | 44.05±4.03 | 5.00±1.41 | 76 ± 3.75 | 48.6 ± 2.26 | IC50 ([1]; K562, MTT, 48 h): 17.7 ± 3.54 µM; SI (selectivity index) K-562 ([1]; IC50 Vero/IC50 cancer cells): 1.15; IC50 (MCF-7 (breast carcinoma); MCF7, MTT, 48 h): 9.66 ± 0.31 µM; SI (selectivity index) MCF-7 (MCF-7 (breast carcinoma); IC50 Vero/IC50 cancer cells): 2.11; red fluorescence (in words) (K-562 cells [2]; K-562, 10 µM, 48 h): reduced; yellowish-stained lysosomes, AO fluorescence, % of the control (K-562 cells [2]; K-562, 15 µM, 48 h, Ex. 488 nm/Em. 540–550 nm, normalized to Hoechst): 324 % of the control; leukemia cells accumulated in G1 phase (maximum) (CCRF-CEM cells [3]; 10 µM): 49%; cells in early and late apoptosis (CCRF-CEM cells [5]; 10 µM): 47% |
| CN(C)c1nc2c(Br)c(Br)c(Br)c(Br)c2[nH]1 [Compound 4, 4,5,6,7-Tetrabromo-N,N-dimethyl-1H-benzimidazol-2-amine, reference compound] | able to induce autophagy | up to 148 % of the control | S-phase arrest | 57.7 | S-phase arrest | 1.65±0.78 | 13.55±0.35 | 1.45±0.07 | 1.55±0.07 | 16.75±0.21 | 1.35±0.49 | 83.3 ± 0.57 | 80.35 ± 0.78 | IC50 ([1]; K562, 48 h): 22.5 ± 6.09 µM; IC50 (MCF-7 (breast carcinoma); MCF7, 48 h): 14.7 ± 0.27 µM |
